{"source": "patent US11679168B2", "about": "“Caspase-3-triggered molecular self-assembling PET probes and uses thereof” (The Board of Trustees of the Leland Stanford Junior …, priority 2018, dated 2023)", "key": {"H1299 tumor": {"test_system": "H1299 tumor", "assay": "PET/CT imaging of H1299 tumor-bearing mice", "type": "in vivo", "settings": "for radioactivity retention in tumor: 85 min post-injection", "protocol": "(§1) FIGS. 4A and 4D illustrate representative 55- to 60-min axial and sagittal fused PET/CT images. Nude mice received approximately 200 μCi of [18F]-C-SNAT4 via tail vein injection, with PET/CT images acquired at 55 to 60 min after injection. Arrowheads indicate the tumor, identified from the CT images. H460 and H1299 tumor bearing mice were naïve, or 24 h following last dose of cisplatin treatment (Low dose: 3 mg/kg every other day for three times; high dose: 9 mg/kg every other day for three times).\n(§2) Animal model and probe administration: For subcutaneous tumor models, H460 or H1299 (2×10^6 cells in 100 μl of PBS) were injection subcutaneously on the back of female nu/nu nude mice (aged 6 to 8 weeks; Charles River Laboratories). Tumor dimensions were measured periodically using a caliper (by the same researcher), with tumor volumes calculated by the following equation: volume=a×b×c/2, where a, b, and c represent three orthogonal axis of the tumor. Treatment-response analysis was performed 24 h after drug treatment. For all other experiments, animals were culled 26 h after therapy and tissues excised for analysis. For chemotherapy mouse model, tumors were grown to about 150 mm^3, and then treatment that consisted of cisplatin (Sigma-Aldrich; Low dose: 3 mg/kg; high dose: 9 mg/kg) or saline was initiated through intravenous administration, every other day for three times. Total mouse body weight and tumor size were measured every other day. Treat or left untreated. For radiotherapy mouse model, treatment consisted of two fractions of 5 Gy or 2 Gy dose of radiation therapy delivered with a single 225 kV beam using the Kimtron IC 225 irradiator (Kimtron Medical, CT, USA).\n(§3) Small-animal PET/CT imaging and analysis: PET/CT imaging was carried out on a docked Siemens Inveon PET/CT scanner (matrix size, 128×128×159; CT attenuation-corrected; non-scatter corrected) (Siemens Medical Solutions USA) following a bolus intravenous injection of approximately 200 μCi of [^18F]-C-SNAT4 into tumor-bearing mice (n=56, 3-4 mice per group). Dynamic scans were acquired in list mode format over 90 min, and sorted into 22 times of frames, 0.5-mm sinogram bins for image reconstruction (4×15 s, 4×60 s, 11×300 s, 3×600 s). Mice were anesthetized with 2% isoflurane near the center of the FOV to ensure the highest image resolution and sensitivity. Iterative reconstruction was performed using 3D ordered-subsets expectation maximization (3D-OSEM) followed by fast maximum a posteriori (fast MAP) with the following parameters: MAP OSEM iterations, 2; MAP subsets, 16; MAP iterations, 18. Siemens Inveon Research Workplace software v.4.0 was used for visualization of radiotracer uptake in the tumor, to define the three-dimensional (3D) volumes of interest (VOI) and for 3D-visualisation to create volume rendering technique (VRT) images. The relative tumor or organ radioactivity concentrations were from mean pixel values within the multiple ROI volumes. The radioactivity concentration within organs was obtained from mean pixel values with in the VOI and converted to counts per milliliter per min and then divided by the injected dose (ID) to obtain an imaging VOI-derived percentage of the injected radioactive dose per cubic centimeter of tissue (% ID/cc)."}, "[1]": {"assay": "Blood half-life in healthy nude mice after intravenous injection", "type": "in vivo", "source_text": "FIG. 21 illustrates blood half-life in healthy nude mice after intravenous injection of [^18F]-C-SNAT4 (n=4)."}, "[2]": {"assay": "Ex vivo biodistribution in H460 tumor-bearing mice", "settings": "2 h post injection", "protocol": "FIG. 20 illustrates biodistribution of [^18F]-C-SNAT4 in H460 tumor-bearing female nude mice. Mice were administered approximately 200 μCi [^18F]-C-SNAT4, animal were exsanguinated through the left ventricle and indicated tissues were excised at 2 hours post-injection in mice bearing naïve-tumor (black) or drug-treated tumor (gray). Data represent the mean±S.D. (n=4 animals per groups)\nBiodistribution study: H460 or H1299 tumor-bearing female nude mice were administered approximately 7.4 MBq of [^18F]-C-SNAT4 via the tail vein (n=4-5 per group). Mice were maintained under anesthesia and warmed to 37° C. to replicate imaging conditions. At 90 min after [^18F]-C-SNAT4 injection, animals were sacrificed by exsanguination via cardiac puncture. For all animals, tumors were excised immediately upon death, weighed using pre-weighted tubes, and rapidly placed in 10% formalin (Fisher Scientific) for fixation. Tumor and tissue decay-corrected radioactivity was subsequently determined using a Cobra II Auto-Gamma counter (Packard Biosciences Co, UK.) Predefined 1.85 MBq (50 μCi) standards (50 μl) were also counter for data normalization to injected dose. Data were expressed as percent injected dose per gram of tissue (% ID/g)."}, "H460 tumor": {"test_system": "H460 tumor", "assay": "PET/CT imaging of H460 tumor-bearing mice", "type": "in vivo", "protocol": "as §1, §2, §3"}, "[3]": {"settings": "H460, 2 Gy-treated tumor, [18F]-C-SNAT4 only"}}, "data": [{"compound": "CCSSCC(NC(=O)C(CC(=O)O)NC(=O)C(NC(=O)C(CCC(=O)O)NC(=O)C(CC(=O)O)NC(C)=O)C(C)C)C(=O)NCC(=O)NC(Cc1cn(CCOCCOCCOCC[18F])nn1)C(=O)NCc1ccc(C(=O)NCCCOc2cnc(C#N)nc2)cc1", "note": "(stereo not drawn) [[^18F]-C-SNAT4]", "values": [{"measurement": "AUC of time activity curve", "setting": "H1299 tumor; H1299, high doses cisplatin", "value": "64.2±27.8", "unit": "% ID min/cc"}, {"measurement": "radioactivity retention in tumor", "setting": "H1299 tumor; H1299, high doses cisplatin", "value": "0.5±0.3", "unit": "% ID/cc"}, {"measurement": "AUC of time activity curve", "setting": "H1299 tumor; H1299, low doses cisplatin", "value": "66.0±6.8", "unit": "% ID min/cc"}, {"measurement": "radioactivity retention in tumor", "setting": "H1299 tumor; H1299, low doses cisplatin", "value": "0.4±0.2", "unit": "% ID/cc"}, {"measurement": "AUC of time activity curve", "setting": "H1299 tumor; H1299, saline", "value": "41.2±25.4", "unit": "% ID min/cc"}, {"measurement": "radioactivity retention in tumor", "setting": "H1299 tumor; H1299, saline", "value": "0.4±0.1", "unit": "% ID/cc"}, {"measurement": "elimination from the blood", "setting": "[1]; by 2 h after administration", "value": "nearly complete elimination"}, {"measurement": "peak blood concentration", "setting": "[1]; healthy nude mice, after 5 min", "value": "15.21±2.66", "unit": "% ID/g"}, {"measurement": "blood life", "setting": "[1]; healthy nude mice, i.v.", "value": "0.4 ± 0.1", "unit": "h"}, {"measurement": "blood half-life", "setting": "[1]; healthy nude mice, i.v., n=4", "value": "21.6 ± 6.6", "unit": "min"}, {"measurement": "clearance route", "setting": "[2]", "value": "predominantly renal clearance"}, {"measurement": "AUC of time activity curve", "setting": "H460 tumor; [3]", "value": "123.6±30.9", "unit": "% ID min/cc"}, {"measurement": "tumor uptake", "setting": "H460 tumor; [3]", "value": "1.2±0.3", "unit": "% ID/cc"}, {"measurement": "AUC of time activity curve", "setting": "H460 tumor; H460, 5 Gy-treated, hot tracer only, t=0 to 85 min", "value": "279.4±16.6", "unit": "% ID min/cc"}, {"measurement": "tumor uptake", "setting": "H460 tumor; H460, high dose cisplatin (9 mg/kg x3) treated, 85 min post-injection", "value": "1.7±0.1", "unit": "% ID/cc"}, {"measurement": "AUC of time activity curve", "setting": "H460 tumor; H460, high dose cisplatin treated, t=0 to 85 min", "value": "148.9±10.1", "unit": "% ID min/cc"}, {"measurement": "tumor uptake", "setting": "H460 tumor; H460, low dose cisplatin (3 mg/kg x3) treated, 85 min post-injection", "value": "1.2±0.1", "unit": "% ID/cc"}, {"measurement": "AUC of time activity curve", "setting": "H460 tumor; H460, low dose cisplatin treated, t=0 to 85 min", "value": "116.7±6.0", "unit": "% ID min/cc"}, {"measurement": "AUC of time activity curve", "setting": "H460 tumor; H460, naive tumor, t=0 to 85 min", "value": "67.5±12.0", "unit": "% ID min/cc"}, {"measurement": "tumor uptake", "setting": "H460 tumor; H460, naïve animals, 85 min post-injection", "value": "0.7±0.11", "unit": "% ID/cc"}, {"measurement": "AUC of time activity curve", "setting": "H460 tumor; H460, naïve tumors (2 Gy experiment)", "value": "92.1±20.9", "unit": "% ID min/cc"}, {"measurement": "tumor uptake", "setting": "H460 tumor; H460, two fractions of 5 Gy, hot tracer only, 85 min post injection", "value": "1.0±0.3", "unit": "% ID/cc"}, {"measurement": "tumor uptake", "setting": "H460 tumor; H460, untreated tumor (2 Gy experiment)", "value": "0.8±0.1", "unit": "% ID/cc"}, {"measurement": "tumor uptake", "setting": "H460 tumor; H460, untreated tumor, hot tracer (mixture comparison), 85 min", "value": "0.4±0.1", "unit": "% ID/cc"}]}]}
